Our source for the EC50 and Kd values is publication PMC6934227, “GPR101 mediates the pro-resolving actions of RvD5n-3 DPA in arthritis and infections” (The Journal of Clinical Investigation, 2019).

Each structure is given as a SMILES string.

Type in all cases: cell-based
The target in test [1] is T1, GPR32 (DRV1) (Homo sapiens, UniProt O75388).
T1 construct: CHO cells stably expressing human recombinant GPR32 coupled to a β-arrestin reporter system
The experiment in a line: PathHunter β-arrestin recruitment in CHO cells (reference agonist). For orientation: Arrestin recruitment assays detect the binding of arrestin to an activated receptor.

The target of the next test is T2, GPR101 (Homo sapiens, UniProt Q96P66).
T2 construct: GPR101-overexpressing CHO cells
T2 sequence (Q96P66 1-508): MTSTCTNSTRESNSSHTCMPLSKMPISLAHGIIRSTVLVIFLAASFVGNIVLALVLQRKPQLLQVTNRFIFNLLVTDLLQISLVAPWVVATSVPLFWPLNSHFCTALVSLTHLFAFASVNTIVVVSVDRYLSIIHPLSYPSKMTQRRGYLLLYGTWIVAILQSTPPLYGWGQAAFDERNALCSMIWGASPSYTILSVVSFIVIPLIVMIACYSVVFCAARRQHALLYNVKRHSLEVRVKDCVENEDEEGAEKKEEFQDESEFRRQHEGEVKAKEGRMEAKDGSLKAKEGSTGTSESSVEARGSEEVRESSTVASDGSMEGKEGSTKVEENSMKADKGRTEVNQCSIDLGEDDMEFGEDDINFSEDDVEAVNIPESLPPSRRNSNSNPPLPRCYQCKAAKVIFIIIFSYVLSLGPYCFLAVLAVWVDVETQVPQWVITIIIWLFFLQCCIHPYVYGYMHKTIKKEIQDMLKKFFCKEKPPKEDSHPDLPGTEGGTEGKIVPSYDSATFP
The experiment in a line: tritiated radioligand saturation binding on GPR101-overexpressing CHO cells (plus homologous competition, IC50 […]). The text has this:
These experiments yielded a calculated KD

Test [2] has as its target T1, GPR32 (DRV1). As to the kind of experiment: PathHunter β-arrestin recruitment in CHO cells.

T1 sequence (O75388 whole entry): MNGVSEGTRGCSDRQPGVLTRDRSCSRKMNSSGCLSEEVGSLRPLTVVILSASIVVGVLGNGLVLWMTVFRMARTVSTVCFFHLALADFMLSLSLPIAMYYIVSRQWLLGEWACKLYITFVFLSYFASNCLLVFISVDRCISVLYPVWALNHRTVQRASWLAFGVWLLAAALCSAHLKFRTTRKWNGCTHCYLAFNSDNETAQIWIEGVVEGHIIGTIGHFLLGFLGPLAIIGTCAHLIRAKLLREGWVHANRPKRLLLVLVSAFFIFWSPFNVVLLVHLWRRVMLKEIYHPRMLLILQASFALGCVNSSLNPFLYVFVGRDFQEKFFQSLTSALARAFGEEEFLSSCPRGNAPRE

At GPR32 (DRV1) [1], `CC/C=C\C[C@H](O)/C=C/C=C\C=C\C=C\[C@@H](O)[C@@H](O)C/C=C\CCC(=O)O` [RvD1, 7S,8R,17S-trihydroxy-4Z,9E,11E,13Z,15E,19Z-docosahexaenoic acid] had an EC50 of about 0.0015 nM. Turning to `CC/C=C\C[C@H](O)/C=C/C=C\C/C=C\C=C\[C@@H](O)CCCCCC(=O)O` [RvD5n-3 DPA, 7S,17S-dihydroxy-8E,10Z,13Z,15E,19Z-docosapentaenoic acid], the dissociation constant Kd at GPR101 is about 6.9 nM. This compound yielded an EC50 at GPR32 (DRV1) [2] of about 0.014 nM.

The EC50 is the midpoint of the concentration-response curve. What is called Kd is the concentration at which binding is half-saturated.
